In patent US10696707B2, “Polyene macrolide derivative” (Shionogi & Co., Ltd., priority 2014, dated 2020):
Converted amounts (≈) assume the structure as drawn. Where two headings read alike, the source gives them in different places.

Columns and labels:
Assay type in all cases: cell-based
A. flavus ATCC204304 = assay: Antifungal activity test, MIC by broth microdilution (CLSI M38-A2); conditions: A. flavus ATCC204304, 35° C., 24-48 hours
Experimental: (§1) The Minimum Inhibitory Concentration (MIC) values of the present compound against yeast and filamentous fungi were determined by broth microdilution assay according to the Clinical Laboratory Standards Institute (CLSI) guidelines outlined in documents M27-A3 and M38-A2. The medium used in the assay consisted of RPMI1640 (with glutamine, without bicarbonate) with 2% glucose and 0.165 mol/L morpholinepropanesulfonic acid (MOPS) with pH adjusted to 7.0 using 1 mol/L sodium hydroxide. The present compound was dissolved in dimethyl sulfoxide (DMSO). A series of two-fold dilutions were prepared in DMSO, and then 2 μL of the diluted compound was added to each well in 96-well sterile plates. Each inoculum was prepared by diluting a suspension of Candida spp. or a conidia suspension of Aspergillus spp. suspended in sterile saline solution, and then 200 μL was added to each well to a predetermined concentration using RPMI/MOPS (final concentration for each solution: approximately 1×10^3 cells/mL and approximately 1×10^4 CFU/mL). Plates of Candida spp. and Aspergillus spp. were incubated at 35° C. for 24-48 hours. The MIC was defined as the lowest concentration giving 100% inhibition compared to the growth control.

A. fumigatus ATCC204305 = assay: as above; conditions: A. fumigatus ATCC204305, 35° C., 24-48 hours
Experimental: as §1

C. albicans ATCC90028 = assay: Antifungal activity test, MIC by broth microdilution (CLSI M27-A3); conditions: C. albicans ATCC90028, 35° C., 24-48 hours
Experimental: as §1

[1] = Aspergillus flavus, broth microdilution, 100% inhibition, read-out: MIC
[2] = Aspergillus fumigatus, broth microdilution, 100% inhibition, read-out: MIC
[3] = Candida albicans, broth microdilution, 100% inhibition, read-out: MIC
[4] = lowest concentration giving 100% inhibition

| Structure (SMILES) | MIC (A. flavus ATCC204304; [4]) [µg/mL] | MIC (A. fumigatus ATCC204305; [4]) [µg/mL] | MIC (C. albicans ATCC90028; [4]) [µg/mL] | also measured |
| --- | --- | --- | --- | --- |
| C[C@@H]1[C@H](O)[C@@H](C)/C=C/C=C/C=C/C=C/C=C/C=C/C=C/[C@H](O[C@@H]2O[C@H](C)[C@@H](O)[C@H](N)[C@@H]2O)C[C@@H]2O[C@](O)(C[C@@H](O)C[C@@H](O)[C@H](O)CC[C@@H](O)C[C@@H](O)CC(=O)O[C@H]1C)C[C@H](O)[C@H]2NC(=O)NOCC(=O)O [I-278] |  |  |  | MIC (A. flavus ATCC204304; [1]): 0.5 µg/mL (≈ 0.494 µM); MIC (A. fumigatus ATCC204305; [2]): 0.5 µg/mL (≈ 0.494 µM); MIC (C. albicans ATCC90028; [3]): 0.5 µg/mL (≈ 0.494 µM) |
| C[C@@H]1[C@H](O)[C@@H](C)/C=C/C=C/C=C/C=C/C=C/C=C/C=C/[C@H](O[C@@H]2O[C@H](C)[C@@H](O)[C@H](N)[C@@H]2O)C[C@@H]2O[C@](O)(C[C@@H](O)C[C@@H](O)[C@H](O)CC[C@@H](O)C[C@@H](O)CC(=O)O[C@H]1C)C[C@H](O)[C@H]2NC(=O)N1C[C@@](O)(C(=O)O)[C@@](O)(C(=O)O)C1 [I-298] |  |  |  | MIC (A. flavus ATCC204304; [1]): 1 µg/mL (≈ 0.899 µM); MIC (A. fumigatus ATCC204305; [2]): 0.5 µg/mL (≈ 0.45 µM); MIC (C. albicans ATCC90028; [3]): 0.5 µg/mL (≈ 0.45 µM) |
| C[C@@H]1[C@H](O)[C@@H](C)/C=C/C=C/C=C/C=C/C=C/C=C/C=C/[C@H](O[C@@H]2O[C@H](C)[C@@H](O)[C@H](NC(=O)CN(C)C)[C@@H]2O)C[C@@H]2O[C@](O)(C[C@@H](O)C[C@@H](O)[C@H](O)CC[C@@H](O)C[C@@H](O)CC(=O)O[C@H]1C)C[C@H](O)[C@H]2NC(N)=O [I-325] | 0.5 (≈ 0.489 µM) | 1 (≈ 0.977 µM) | 0.25 (≈ 0.244 µM) |  |
| C[C@@H]1[C@H](O)[C@@H](C)/C=C/C=C/C=C/C=C/C=C/C=C/C=C/[C@H](O[C@@H]2O[C@H](C)[C@@H](O)[C@H](NC(=O)CN(C)C)[C@@H]2O)C[C@@H]2O[C@](O)(C[C@@H](O)C[C@@H](O)[C@H](O)CC[C@@H](O)C[C@@H](O)CC(=O)O[C@H]1C)C[C@H](O)[C@H]2NC(=O)NNC(N)=O [I-326] | 1 (≈ 0.925 µM) | 1 (≈ 0.925 µM) | 0.25 (≈ 0.231 µM) |  |
| C[C@@H]1[C@H](O)[C@@H](C)/C=C/C=C/C=C/C=C/C=C/C=C/C=C/[C@H](O[C@@H]2O[C@H](C)[C@@H](O)[C@H](NC(=N)N)[C@@H]2O)C[C@@H]2O[C@](O)(C[C@@H](O)C[C@@H](O)[C@H](O)CC[C@@H](O)C[C@@H](O)CC(=O)O[C@H]1C)C[C@H](O)[C@H]2NC(=O)NNC(N)=O [I-330] | 1 (≈ 0.963 µM) | 1 (≈ 0.963 µM) | 0.25 (≈ 0.241 µM) |  |
| CONC(=O)N[C@H]1[C@@H]2C[C@@H](O[C@@H]3O[C@H](C)[C@@H](O)[C@H](NC(=N)N)[C@@H]3O)/C=C/C=C/C=C/C=C/C=C/C=C/C=C/[C@H](C)[C@@H](O)[C@@H](C)[C@H](C)OC(=O)C[C@H](O)C[C@H](O)CC[C@@H](O)[C@H](O)C[C@H](O)C[C@](O)(C[C@@H]1O)O2 [I-331] | 1 (≈ 0.99 µM) | 1 (≈ 0.99 µM) | 0.25 (≈ 0.247 µM) |  |
| C[C@@H]1[C@H](O)[C@@H](C)/C=C/C=C/C=C/C=C/C=C/C=C/C=C/[C@H](O[C@@H]2O[C@H](C)[C@@H](O)[C@H](NC(=N)N)[C@@H]2O)C[C@@H]2O[C@](O)(C[C@@H](O)C[C@@H](O)[C@H](O)CC[C@@H](O)C[C@@H](O)CC(=O)O[C@H]1C)C[C@H](O)[C@H]2NC(=O)NCCC(N)=O [I-343] | 0.5 (≈ 0.476 µM) | 1 (≈ 0.951 µM) | 0.25 (≈ 0.238 µM) |  |
| C[C@@H]1[C@H](O)[C@@H](C)/C=C/C=C/C=C/C=C/C=C/C=C/C=C/[C@H](O[C@@H]2O[C@H](C)[C@@H](O)[C@H](NC(=O)CN(C)C)[C@@H]2O)C[C@@H]2O[C@](O)(C[C@@H](O)C[C@@H](O)[C@H](O)CC[C@@H](O)C[C@@H](O)CC(=O)O[C@H]1C)C[C@H](O)[C@H]2NC(=O)NCCC(N)=O [I-344] | 0.5 (≈ 0.457 µM) | 1 (≈ 0.914 µM) | 0.5 (≈ 0.457 µM) |  |
| C[C@@H]1[C@H](O)[C@@H](C)/C=C/C=C/C=C/C=C/C=C/C=C/C=C/[C@H](O[C@@H]2O[C@H](C)[C@@H](O)[C@H](NC(=N)N)[C@@H]2O)C[C@@H]2O[C@](O)(C[C@@H](O)C[C@@H](O)[C@H](O)CC[C@@H](O)C[C@@H](O)CC(=O)O[C@H]1C)C[C@H](O)[C@H]2NC(=O)NCC(N)=O [I-346] | 0.5 (≈ 0.482 µM) | 1 (≈ 0.964 µM) | 0.5 (≈ 0.482 µM) |  |
| C[C@@H]1[C@H](O)[C@@H](C)/C=C/C=C/C=C/C=C/C=C/C=C/C=C/[C@H](O[C@@H]2O[C@H](C)[C@@H](O)[C@H](NC(=N)N)[C@@H]2O)C[C@@H]2O[C@](O)(C[C@@H](O)C[C@@H](O)[C@H](O)CC[C@@H](O)C[C@@H](O)CC(=O)O[C@H]1C)C[C@H](O)[C@H]2NC(=O)NNC(=O)[C@H](O)CO [I-367] |  |  |  | MIC (A. flavus ATCC204304; Aspergillus flavus, lowest concentration giving 100% inhibition, read-out: MIC): 0.5 µg/mL (≈ 0.462 µM); MIC (A. fumigatus ATCC204305; Aspergillus fumigatus, lowest concentration giving 100% inhibition, read-out: MIC): 1 µg/mL (≈ 0.923 µM); MIC (C. albicans ATCC90028; Candida albicans, lowest concentration giving 100% inhibition, read-out: MIC): 0.25 µg/mL (≈ 0.231 µM) |
